Ten compounds from US9656984B2, “PI3K/AKT/mTOR inhibitors and pharmaceutical uses thereof” (UNIVERSITE DE RENNES 1, priority 2013, dated 2017) can be followed below.

In series [1] the test system is MCF-7 (ER-positive) breast tumor cell line. As to the kind of experiment: Cell death by MTT assay, MCF-7. To be noted: 24 hours, mean of four experiments. It counts as cell-based, human. The procedure:
(§1) The ER-positive breast tumor cell lines MCF-7 and T47-D and the HER2 positive breast tumor cell lines MDA-MB-453 and BT474 (also ER-positive) were incubated with the indicated concentration of each mentioned compound of formula (I) for 24 hours and then cell death was assessed using MTT assay.
(§2) For each cell line, the percentage of cell death (mean of four experiments for cell lines MCF-7 and T47-D, and two experiments for cell lines MDA-MB-453 and BT474) is given in view of the increasing concentration of each tested compound of the invention.
(§3) Cell viability was assessed using the 3-[4,5-dimethylthiazol-2-yl]-2,5-diphenyltetrazolium bromide (MTT) viability assay (1). In brief, cells (4×10^4 per well) were cultured for 20 h in flat-bottomed 96 well plates with various concentrations of the apoptosis inducer. Then 0.015 ml of MTT (5 mg/ml in PBS) was added to each well and incubated for 4 h at 37° C. Formazan salt precipitats were dissolved by adding 0.115 ml of isopropyl alcohol containing 1% formic acid (v/v), and the absorbance was measured at 570 nm.
(Tetrazolium assays rely on reduction of a dye to a coloured formazan, in cell work by metabolically active cells.)

Series [2] deals with BT474 (ER-positive/HER2-positive) breast tumor cell line. As to the kind of experiment: Cell death by MTT assay, BT474. It counts as cell-based, human. The conditions noted are these: 24 hours, mean of two experiments. Here is the method:
as §1, §2, §3

Series [3] deals with MDA-MB-453 (HER2 positive) breast tumor cell line. As to the kind of experiment: Cell death by MTT assay, MDA-MB-453. The series is classed as cell-based, human. To be noted: 24 hours, mean of two experiments. The procedure:
as §1, §2, §3

The test system of series [4] is T47-D (ER-positive) breast tumor cell line. As to the kind of experiment: Cell death by MTT assay, T47-D. It counts as cell-based, human. The conditions noted are these: 24 hours, mean of four experiments. Here is the method: as §1, §2, §3
Another series concerns AKT phosphorylation. As to the kind of experiment: In cellulo IC50 of AKT phosphorylation in CEM cells (Western blot densitometry). It counts as cell-based. The conditions noted are these: Homo sapiens, CCRF-CEM, 2 hours incubation, AKT phosphorylation vs whole AKT, read-out: In vivo IC50. The procedure: CEM cells were incubated for 2 hours with the indicated concentrations of each mentioned compound of formula (I). Cells were then lysed and 100 μg of protein was loaded per line in an SDS-PAGE. Bands from AKT phosphorylation and whole AKT observed by Western blot were scanned and quantified by densitometric analysis. Based on these values, an in cellulo IC50 (half maximal inhibitory concentration) was measured for each compound of formula (I).
(§4) Immunoblots Excepted for immunoprecipitation experiments in which cells were lyzed with RIPA buffer, cells were lyzed for 30 min at 4° C. in Lysis buffer (25 mM HEPES pH 7.4, 1% v/v Triton X-100, 150 mM NaCl, 2 mM EGTA supplemented with a mix of protease inhibitors). Protein concentration was determined by the bicinchoninic acid method (Pierce, Rockford, Ill., USA) according to the manufacturer's protocol. Proteins were resolved by 8, 10 or 12% SDS-PAGE and transferred to a nitrocellulose membrane (GE Healthcare, Buckinghamshire, UK). The membrane was blocked 15 min with TBST (50 mM Tris, 160 mM NaCl, 0.05% v/v Tween 20, pH 7.4) containing 5% w/v dried skimmed milk (TBS™). Primary antibody was incubated overnight at 4° C. in TBS™. The membrane was intensively washed (TBST) and then the peroxydase-labeled anti-mouse IgG1 or IgG2a (CliniSciences, Nanterre, France) was added for 45 min. Proteins were visualized with the enhanced chemiluminescence substrate kit (ECL RevelBIOt®, Ozyme, Saint Quentin en Yvelines, France).
On the technique in general: In western blotting, separated proteins are transferred to a membrane and probed.

For series [5], the system named is PI3K/AKT activity (AKT phosphorylation). The experiment in a line: PI3K/AKT/mTOR pathway inhibitory activity: level of AKT phosphorylation in CEM cells over time. The conditions noted are these: 10 μM, FIGS. 7 and 8. It counts as cell-based, human. The procedure: The CEM cell was incubated with 10 μM of each mentioned compound of formula (I) for the indicated times and then cells were lysed and 100 μg of protein was loaded per line and resolved by SDS-PAGE. The levels of AKT phosphorylation (hallmark of PI3K activation) and total AKT (loading control) were analyzed by Western blot and the amount of AKT phosphorylation relative to the total amount of protein AKT was quantified by densitometric analysis, the intensity of each band was scanned and the level of AKT phosphorylation was reported to the amount of whole AKT and the percentage of phosphorylated-AKT was depicted.
as §4

SMILES strings stand for the structures.

As to `O=[N+]([O-])C1Cc2cc(Br)ccc2OC1c1ccc(F)cc1` (stereo not drawn) [Compound 7, 6-bromo-2-(4-fluorophenyl)-3-nitro-3,4-dihydro-2H-chromene], the “percentage of cell death” value was determined as 10.88% in series [1] (MCF-7, 6.25 μM); 38.7% in series [1] (MCF-7, 12.5 μM); 79.7% in series [1] (MCF-7, 25 μM); 95.55% in series [1] (MCF-7, 50 μM); 44.85% in series [2] (BT474, 6.25 μM); 55.3% in series [2] (BT474, 12.5 μM). The “percentage of cell death” value in series [2] (BT474, 25 μM) was 91.87%; in series [2] (BT474, 50 μM), 96.07%; in series [3] (MDA-MB-453, 0.390625 μM), 1.13%; in series [3] (MDA-MB-453, 0.78125 μM) it was 0%; in series [3] (MDA-MB-453, 1.5625 μM), 13.84%; in series [3] (MDA-MB-453, 3.125 μM), 52.93%. In addition, the “percentage of cell death” value in series [3] (MDA-MB-453, 6.25 μM) stood at 65.61%; in series [3] (MDA-MB-453, 12.5 μM) it was 97.05%; in series [3] (MDA-MB-453, 25 μM), 102.46%; in series [3] (MDA-MB-453, 50 μM), 100.25%; in series [4] (6.25 μM), 34.43%; in series [4] (12.5 μM) it was 85.1%. Besides, the entries for the “percentage of cell death” value in series [4] (25 μM) and in series [4] (50 μM) were 92.07% and 88.3%, respectively.
On to `O=[N+]([O-])C1=Cc2cc(Br)ccc2OC1c1ccc(Br)cc1` (stereo not drawn) [Compound 9, 6-bromo-2-(4-bromo-phenyl)-3-nitro-2H-chromene], for which the IC50 (commonly the concentration needed to halve the response being measured) in the series on AKT phosphorylation is 0.4 µM. Further, the “percentage of cell death” value in series [1] (MCF-7, 6.25 μM) was 0%; in series [1] (MCF-7, 12.5 μM), 32.14%; in series [1] (MCF-7, 25 μM), 52.18%; in series [1] (MCF-7, 50 μM), 80.16%; in series [2] (BT474, 6.25 μM), 25.95%; in series [2] (BT474, 12.5 μM), 71.4%. The “percentage of cell death” value came out at 88.01% in series [2] (BT474, 25 μM); 93.62% in series [2] (BT474, 50 μM); 1.52% in series [3] (MDA-MB-453, 0.390625 μM); 7.56% in series [3] (MDA-MB-453, 0.78125 μM); 4.67% in series [3] (MDA-MB-453, 1.5625 μM); 53.8% in series [3] (MDA-MB-453, 3.125 μM). Moreover, the “percentage of cell death” value in series [3] (MDA-MB-453, 6.25 μM) was 71.22%; in series [3] (MDA-MB-453, 12.5 μM), 87.47%; in series [3] (MDA-MB-453, 25 μM) it was 97.49%; in series [3] (MDA-MB-453, 50 μM), 98.67%; in series [4] (6.25 μM) it was 20.53%; in series [4] (12.5 μM) it was 92.97%. For the same compound, the “percentage of cell death” value is on record as 91.2% in series [4] (25 μM) and 93.62% in series [4] (50 μM). Further, the “inhibitory activity on PI3K/AKT (level of AKT phosphorylation)” value (from here on “inhibitory activity on PI3K/AKT”) in series [5] is “very strong inhibitors”.
As to `O=[N+]([O-])C1=Cc2cc(Br)ccc2OC1c1ccc(Cl)cc1` (stereo not drawn) [Compound 10, 6-bromo-2-(4-chloro-phenyl)-3-nitro-2H-chromene], in the series on AKT phosphorylation, the IC50 turned out to be 2 µM. The “percentage of cell death” value in series [1] (MCF-7, 6.25 μM) was found to be 0%; in series [1] (MCF-7, 12.5 μM) it was 24.06%; in series [1] (MCF-7, 25 μM), 49.08%; in series [1] (MCF-7, 50 μM), 81.85%; in series [2] (BT474, 6.25 μM), 0%; in series [2] (BT474, 12.5 μM), 40.42%. Further, the “percentage of cell death” value in series [2] (BT474, 25 μM) was 69.52%; in series [2] (BT474, 50 μM), 93.84%; in series [3] (MDA-MB-453, 0.390625 μM), 6.6%; in series [3] (MDA-MB-453, 0.78125 μM), 7.8%; in series [3] (MDA-MB-453, 1.5625 μM) it was 5.06%; in series [3] (MDA-MB-453, 3.125 μM), 70.42%. Also, the “percentage of cell death” value is recorded as 76.17% in series [3] (MDA-MB-453, 6.25 μM); 93.07% in series [3] (MDA-MB-453, 12.5 μM); 98.46% in series [3] (MDA-MB-453, 25 μM); 99.07% in series [3] (MDA-MB-453, 50 μM); 4.62% in series [4] (6.25 μM); 87.84% in series [4] (12.5 μM). The “percentage of cell death” value in series [4] (25 μM) was determined as 91.71%; in series [4] (50 μM) it was 92.93%. In addition, the “inhibitory activity on PI3K/AKT” value in series [5] is “very strong inhibitors”.
Take `CCOc1cccc2c1OC(c1ccc(Br)cc1)C([N+](=O)[O-])=C2` (stereo not drawn) [Compound 13, 2-(4-bromo-phenyl)-8-ethoxy-3-nitro-2H-chromene]: the 50% inhibitory concentration (IC50) in the series on AKT phosphorylation turned out to be 8 µM. In addition, the “inhibitory activity on PI3K/AKT” value in series [5] is recorded as “very strong inhibitors”.
As for `CCOc1cccc2c1OC(c1ccc(Cl)cc1)C([N+](=O)[O-])=C2` (stereo not drawn) [Compound 14, 2-(4-chloro-phenyl)-8-ethoxy-3-nitro-2H-chromene], the IC50 in the series on AKT phosphorylation stood at 10 µM. Moreover, the “inhibitory activity on PI3K/AKT” value in series [5] is “very strong inhibitors”.
Turning to `O=[N+]([O-])C1=Cc2cccc(Br)c2OC1c1ccc(Br)cc1` (stereo not drawn) [Compound 18, 8-bromo-2-(4-bromo-phenyl)-3-nitro-2H-chromene], in the series with AKT phosphorylation, the IC50 is 1.5 µM. Further, the “inhibitory activity on PI3K/AKT” value in series [5] is “very strong inhibitors”. The “percentage of cell death” value in series [3] (MDA-MB-453, 0.390625 μM) was determined as 3.17%; in series [3] (MDA-MB-453, 0.78125 μM) it was 3.17%; in series [3] (MDA-MB-453, 1.5625 μM), 0%; in series [3] (MDA-MB-453, 3.125 μM) it was 0%; in series [3] (MDA-MB-453, 6.25 μM), 45.963%; in series [3] (MDA-MB-453, 12.5 μM), 81.73%. Moreover, the “percentage of cell death” value in series [3] (MDA-MB-453, 25 μM) is recorded as 93.72%; in series [3] (MDA-MB-453, 50 μM) it was 100%; in series [4] (6.25 μM), 0%; in series [4] (12.5 μM), 0%; in series [4] (25 μM) it was 23.71%; in series [4] (50 μM), 78.28%.
For the compound `O=[N+]([O-])C1=Cc2cccc(Br)c2OC1c1ccc(Cl)cc1` (stereo not drawn) [Compound 19, 8-bromo-2-(4-chloro-phenyl)-3-nitro-2H-chromene], in the series with AKT phosphorylation, the IC50 was greater than 10 µM. Besides, the “percentage of cell death” value is 0% in series [1] (MCF-7, 6.25 μM); 25.75% in series [1] (MCF-7, 12.5 μM); 52.14% in series [1] (MCF-7, 25 μM); 84.65% in series [1] (MCF-7, 50 μM); 0% in series [3] (MDA-MB-453, 0.390625 μM); 0% in series [3] (MDA-MB-453, 0.78125 μM). Moreover, the “percentage of cell death” value stood at 0% in series [3] (MDA-MB-453, 1.5625 μM); 24.69% in series [3] (MDA-MB-453, 3.125 μM); 53.93% in series [3] (MDA-MB-453, 6.25 μM); 91.89% in series [3] (MDA-MB-453, 12.5 μM); 98.05% in series [3] (MDA-MB-453, 25 μM); 101.13% in series [3] (MDA-MB-453, 50 μM). The “inhibitory activity on PI3K/AKT” value in series [5] was “very strong inhibitors”.
`O=CC1=Cc2cc(Br)ccc2OC1c1ccc(Br)cc1` (stereo not drawn) [Compound 44, 6-Bromo-2-(4-bromophenyl)-2H-chromene-3-carbaldehyde]: the melting point (commonly the temperature, or range, at which the solid turns liquid) is 144 to 146 °C.
Consider `O=C(O)C1=Cc2cc(Br)ccc2OC1c1ccc(Br)cc1` (stereo not drawn) [Compound 53, 6-bromo-2-(4-bromophenyl)-2H-chromene-3-carboxylic acid], for which the melting point lay in the range of 208 to 210 °C.
The same measure, in the same setting: as for `O=C(O)C1=Cc2cc(Br)cc(Br)c2OC1c1ccc(Br)cc1` (stereo not drawn) [Compound 54, 6,8-dibromo-2(4-bromophenyl)-2H-chromene-3-carboxylic acid], the figure is 256 to 258 °C.
